Test results reported in patent publication US9724408B2, “Compositions and methods for activating stimulator of interferon gene-dependent signalling” (ADURO BIOTECH, INC., priority 2013, dated 2017).

Legend:
B16 melanoma cells = experiment: B16 melanoma subcutaneous tumor model, intratumoral CDN; assay type: in vivo, C57BL/6 mice; details: 25 μg intratumoral, three injections, FIG. 18; for anti-tumor efficacy (tumor volume): every three days
Method: To assess the ability of the derivative molecules to promote anti-tumor immunity, B16 melanoma cells (5×10^4 cells in 100 μL PBS) were implanted subcutaneously on the lower back of 6-8 week old female C57BL/6 mice (8 mice per group). Treatments began when tumors reached a volume of approximately 75 mm^3, on day 14 post tumor implantation. The CDN compounds were administered (25 μg in a total volume of 40 μL HBSS) by subcutaneous injection into the center of the tumor using a 27 gauge needle. Injections were repeated every three days, for a total of three intratumoral injections. The CDNs tested were cyclic [G(3′,5′)pG(3′,5′)p] (CDG); cyclic [G(2′,5′)pG(3′,5′)p] (mixed linkage, or ML CDG); Rp, Rp dithio cyclic [G(2′,5′)pG(3′,5′)p] (ML RR-CDG); cyclic [A(3′,5′)pA(3′,5′)p] (CDA); cyclic [A(2′,5′)pA(3′,5′)p] (mixed linkage, or ML CDA); and Rp, Rp dithio cyclic [A(2′,5′)pA(3′,5′)p] (ML RR-CDA).
To determine whether the effects of the derivative molecules are STING-dependent, B16 melanoma cells (5×10^4 cells in 100 μL PBS) were implanted on the right flanks of 6-8 week old female goldenticket STING^−/− mice, or wild-type C57BL/6 control mice (5 mice per group). Treatments began when tumors reached a volume of approximately 75 mm^3, on day 14 post tumor implantation. The compounds administered were Rp, Rp dithio cyclic [G(2′,5′)pG(3′,5′)p] (ML RR-CDG) (25 μg in a total volume of 40 μL HBSS), Rp, Rp dithio cyclic [A(2′,5′)pA(3′,5′)p] (ML RR-CDA) (50 μg in a total volume of 40 μL HBSS), the TLR9 agonist CpG 1668 (50 μg in a total volume of 40 μL HBSS), or HBSS vehicle control. Mice were treated by subcutaneous injection into the center of tumor only using a 27 gauge needle. Injections were repeated every three days, for a total of three intratumoral injections.

hSTING (Q) = experiment: IFNβ-LUC reporter in HEK293T cells expressing hSTING (Q); assay type: cell-based, human; details: 10 μM, digitonin permeabilization, 6 hrs, FIG. 14
Excerpt: To determine the responsiveness of the five known natural human STING variants (referred to as WT, REF, HAQ, AQ and Q) to the native and derivative molecules, a panel of human embryonic kidney (HEK) 293T cell lines that expressed the human STING alleles was generated. […] MSCV2.2 plasmids encoding hSTING(REF)-GFP, hSTING(WT)-GFP, hSTING(HAQ)-GFP, hSTING(Q)-GFP and mSTING(WT)-GFP were obtained from the Vance Laboratory at UC Berkeley. hSTING(AQ)-GFP was derived from hSTING(Q)-GFP using a QuickChange Site-Directed Mutagenesis kit (Stratagene). The sequence of the hSTING(REF) allele is also known as the Barber allele (Ishikawa, H., and Barber, G. N. (2008). Nature 455, 674-678), and has the NCBI Reference Sequence NP_938023.1. The amino acid difference between hSTING(REF) and the other WT, HAQ, AQ and Q human STING alleles are shown in FIG. 13, which is adapted from Yi et al., Plos One 8: e77846 (2013). Stable HEK 293T-derived cell lines expressing each of the individual human STING alleles were generated by FACS sorting of GFP positive cells using a Mo Flo cell sorter at the Cancer Research Laboratory Flow Cytometry Facility at UC Berkeley. 1×10^4 HEK293T STING cells were seeded in 96-well plates and transiently transfected (using Lipofectamine 2000) with 50 ng of a human IFN-β reporter plasmid (pLuc-IFN-β) expressing the human IFN-β promoter upstream of a luciferase reporter and 10 ng of TK-renilla for normalization. 24 hours later, cells were stimulated with native and synthetic CDN derivative molecules using digitonin permeabalization to ensure uniform uptake. Each STING cell line was stimulated with 10 μM of cyclic [G(3′,5′)pA(3′,5′)p] (cGAMP), cyclic [G(2′,5′)pA(3′,5′)p] (ML-cGAMP), Rp, Rp dithio cyclic [G(2′,5′)pA(3′,5′)p] […] (CDA), Rp, Rp dithio cyclic [A(3′,5′)pA(3′,5′)p] (RR-CDA), cyclic [A(2′,5′)pA(3′,5′)p] (ML-CDA), Rp, Rp dithio cyclic [A(2′,5′)pA(3′,5′)p] (ML RR-CDA), cyclic [G(3′,5′)pG(3′,5′)p] (CDG), Rp, Rp dithio cyclic [G(3′,5′)pG(3′,5′)p] (RR-CDG), cyclic [G(2′,5′)pG(3′,5′)p] (ML-CDG) or Rp, Rp dithio cyclic [G(2′,5′)pG(3′,5′)p] (ML RR-CDG) in 25 ul digitonin buffer (50 mM HEPES, 100 mM KCL, 3 mM MgCl2, 0.1 mM DTT, 85 mM Sucrose, 0.2% BSA, 1 mM ATP, 0.1 mM GTP, 10 ug/ml digitonin). After 20 min, the stimulation mixtures were removed and 200 ul of standard RPMI media was added. After stimulation for 6 hrs, cell lysates were prepared and reporter gene activity measured using the Dual Luciferase Assay System (Promega) on a Spectramax M3 luminometer.

| SMILES | anti-tumor efficacy (tumor volume) (B16 melanoma cells) | tumor rejection (B16 melanoma cells; P=0.0004, student's t-test) | IFNβ reporter response of hSTING (Q) (hSTING (Q)) | tumor status by day 44 post tumor implantation (B16 melanoma cells) |
| --- | --- | --- | --- | --- |
| Nc1ncnc2c1ncn2[C@@H]1O[C@@H]2COP(O)(=S)O[C@@H]3C(O)[C@@H](COP(O)(=S)O[C@H]2[C@H]1O)O[C@H]3n1cnc2c(N)ncnc21 (stereo partly drawn) [ML RR-CDA, dithio-[RP, RP]-cyclic-[A(2′,5′)pA(3′,5′)p]] | potent anti-tumor efficacy | significantly more tumor rejection than the ML CDA derivative | responsive to stimulation | – |
| Nc1nc2c(ncn2[C@@H]2O[C@@H]3CO[P@@](O)(=S)O[C@@H]4[C@H](O)[C@@H](CO[P@@](O)(=S)O[C@H]3[C@H]2O)O[C@H]4n2cnc3c(=O)[nH]c(N)nc32)c(=O)[nH]1 [ML RR-CDG, dithio-[RP,RP]-cyclic-[G(2′,5′)pG(3′,5′)p]] | potent anti-tumor efficacy | – | responsive to stimulation | mice remained nearly tumor-free |
